This note sets out measurements from paper PMC9616876, “Structures of the CcmABCD heme release complex at multiple states” (Nature Communications, 2022).

In data set [1] the target is T1, CcmABCD (ATP-binding site in CcmA) (Escherichia coli, UniProt P33931).
T1 construct: full-length CcmA2B2C1D1, N-terminal His6 on CcmA; CcmABCDE operon co-expressed in E. coli BL21(DE3), CcmE not observed in purified complex; DDM-solubilised membranes; with Heme exporter protein B; Heme exporter protein C; Heme exporter protein D
The data set is described as follows: cryo-EM structure.

Data set [2] deals with the molecule itself. The data set can be described thus: cryo-EM structure; CcmABCD purified in DDM (20 mM Tris-HCl pH 7.5, 50 mM NaCl, 0.03% DDM), ~12 mg/ml; apo, with 3.5 mM MgCl2 and AMP-PNP, or with 3.5 mM MgCl2, ATP, heme b and 1 mM DTT; closed, semi-open and open NBD states.

The stoichiometry N is a count of units in the complex or per binding partner.

On to `Nc1ncnc2c1ncn2[C@@H]1O[C@H](COP(=O)(O)OP(=O)(O)OP(=O)(O)O)[C@@H](O)[C@H]1O` [ATP], for which the cryo-EM structure entry in data set [1] (3.5 mM ATP, 3.5 mM MgCl2, 3.5 mM heme b, 1 mM DTT, two ATP in closed NBD state (7F04), one ATP in semi-open NBD state (7VFP), ATPase activity also measured) was “CcmABCD bound with heme b and double ATPs in closed NBD state”.
For the molecule `O=P(O)(O)O` [inorganic phosphate], the cryo-EM structure entry in data set [1] (no nucleotide added, one phosphate per CcmA, closed NBD state, membranes purified in potassium phosphate buffer) is “each CcmA binds one inorganic phosphate”.
For `Nc1ncnc2c1ncn2[C@@H]1O[C@H](COP(=O)(O)OP(=O)(O)NP(=O)(O)O)[C@@H](O)[C@H]1O` [AMP-PNP], the cryo-EM structure entry in data set [1] (3.5 mM AMP-PNP, 3.5 mM MgCl2, two AMP-PNP, closed NBD state) is “CcmABCD bound with AMP-PNP in closed NBD state”.

B1: CcmB (natural protein, E. coli BL21 (DE3))
chain: MMFWRIFRLELRVAFRHSAEIANPLWFFLIVITLFPLSIGPEPQLLARIAPGIIWVAALLSSLLALERLFRDDLQDGSLEQLMLLPLPLPAVVLAKVMAHWMVTGLPLLILSPLVAMLLGMDVYGWQVMALTLLLGTPTLGFLGAPGVALTVGLKRGGVLLSILVLPLTIPLLIFATAAMDAASMHLPVDGYLAILGALLAGTATLSPFATAAALRISIQ
notes: CcmB, integral membrane protein with six transmembrane helices, gene amplified from the E. coli BL21 (DE3) genome; also called CcmB1; CcmB2
Take B1: in data set [2], the “stoichiometry N” value was 2.

B2: CcmA (natural protein, E. coli BL21 (DE3))
chain: MGMLEARELLCERDERTLFSGLSFTLNAGEWVQITGSNGAGKTTLLRLLTGLSRPDAGEVLWQGQPLHQVRDSYHQNLLWIGHQPGIKTRLTALENLHFYHRDGDTAQCLEALAQAGLAGFEDIPVNQLSAGQQRRVALARLWLTRATLWILDEPFTAIDVNGVDRLTQRMAQHTEQGGIVILTTHQPLNVAESKIRRISLTQTRAA
notes: The whole CcmABCDE gene stretch was amplified by PCR from the genome; also called hexahistidine-tagged CcmA; NBD; not shown: His6, N-terminal, kept
In the case of B2, the “stoichiometry N” value in data set [2] was 2.
